Tested on: PC12 cells
Assay: Microchip amperometric detection of electrically evoked exocytotic catecholamine release
Format: cell-based, rat
Procedure: Cells were cultured in suspension in 75 mm^2 tissue culture flasks with RPMI 1640 (Invitrogen, Carlsbad, Calif.) cell culture media supplemented with 15% horse serum (Invitrogen), 2.5% fetal bovine serum (Invitrogen) and 0.02 mg/ml gentamicin (Invitrogen). Flasks were kept in an incubator at 37° C. with 5% CO2. Media was refreshed every 3-4 days, retaining 10% of the existing media each time. Cells were mechanically agitated to break up cell clusters through repeated washing through a pipettor tip. Additional separation was achieved through weekly, overnight treatment of the cells in 1 mM ethylene glycol tetraacetic acid (EGTA, Sigma-Aldrich, St. Louis, Mo.) with subsequent washing and trituration.
Prior to use, cells were transferred to Locke's buffer consisting of 154 mM NaCl, 5.6 mM KCl, 3.6 mM NaHCO3, 2.3 mM CaCl2, 5.6 mM glucose, and 5 mM Hepes (pH 7.4). An aliquot of the solution was immediately transferred to the MEMS device via manual pipette aspiration. […]
Neurotransmitter release from the PC12 cells was measured using a three electrode arrangement with a Au WE (FIGS. 3A and 3B, WE), a Au counter electrode (FIGS. 3A and 3B, CE) and silver/silver chloride (Ag/AgCl) reference electrode (RE) with all controlled by a NPI VA-10 potentiostat (National Precision Instruments (NPI), Tamm, Germany). […]

SMILES	exocytosis activity after exposure to the actin-disrupting agent (population of PC12 cells exposed to cytochalasin-D, data not shown)	cube root of quantal yield (PC12 cells differentiated with 5 μM dexamethasone, n=209 cells, k=25,463 spikes, WE +700 mV vs Ag/AgCl)
C=C1[C@@H](C)[C@H]2[C@H](Cc3ccccc3)NC(=O)[C@]23[C@H](OC(C)=O)/C=C/[C@@](C)(O)C(=O)[C@@H](C)C/C=C/[C@H]3[C@@H]1O [cytochalasin-D]	did not block	–
C[C@@H]1C[C@H]2[C@@H]3CCC4=CC(=O)C=C[C@]4(C)[C@@]3(F)[C@@H](O)C[C@]2(C)[C@@]1(O)C(=O)CO [dexamethasone]	–	6.6±0.08 zmol^1/3
